Reference: US20230233569A1 (Revolution Medicines, Inc., priority 2020, published 2023)

Assays:
[1] = system: Capan-1 (K-Ras G12V); experiment: CellTiter-Glo cell viability assay, 5-day treatment; type: cell-based; conditions: Homo sapiens, CAPAN-1, 120 h, 5-day treatment; read-out: Capan-1 Cell Viability assay data (K-Ras G12V, IC50)
Procedure, shortened: (§1)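 Seeded cells received test compound by direct dispensing. On day 5 the plates sat at room temperature approximately 30 minutes, then luminescence was measured. Data were normalized to DMSO and curve-fitted with four parameters.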

[2] = system: NCI-H358 (K-Ras G12C); experiment: as above; type: cell-based; conditions: Homo sapiens, NCI-H358, 120 h, 5-day treatment; read-out: H358 Cell Viability assay data (K-Ras G12C, IC50)
Procedure, shortened: as §1

[3] = biological target: KRAS G12C (Homo sapiens, UniProt P01116+P62937, G12C); experiment: Disruption of BRAF RBD interaction with Ras (FRET / MOA assay, with Cyclophilin A); type: biochemical; conditions: read-out: KRAS G12C FRET data, IC50
Procedure, shortened: (§2)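 Biochemical TR-FRET disruption assay: nucleotide-loaded K-Ras with Cyclophilin A and a BRAF RBD construct, compound titrated over 10 points from 30 μM (final).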

[4] = biological target: KRAS G12D (Homo sapiens, UniProt P01116+P62937, G12D); experiment: as above; type: biochemical; conditions: read-out: KRAS G12D FRET data, IC50
Procedure, shortened: as §2

[5] = biological target: KRAS G12S (Homo sapiens, UniProt P01116+P62937, G12S); experiment: as above; type: biochemical; conditions: read-out: KRAS G12S FRET data, IC50
Procedure, shortened: as §2

[6] = biological target: KRAS G12V (Homo sapiens, UniProt P01116+P62937, G12V); experiment: as above; type: biochemical; conditions: KRAS G12V; read-out: KRAS G12V FRET data IC50
Procedure, shortened: as §2

[7] = biological target: KRAS G13C (Homo sapiens, UniProt P01116+P62937, G13C); experiment: as above; type: biochemical; conditions: read-out: KRAS G13C FRET data, IC50
Procedure, shortened: as §2

[8] = biological target: KRAS G13D (Homo sapiens, UniProt P01116+P62937, G13D); experiment: as above; type: biochemical; conditions: KRAS G13D; read-out: KRAS G13D FRET data IC50
Procedure, shortened: as §2

[9] = biological target: KRAS WT (Homo sapiens, UniProt P01116+P62937); experiment: as above; type: biochemical; conditions: KRAS WT; read-out: KRAS WT FRET data IC50
Procedure, shortened: as §2

[10] = biological target: NRAS G12C (Homo sapiens, UniProt P01111+P62937, G12C); experiment: as above; type: biochemical; conditions: NRAS G12C; read-out: NRAS G12C FRET data IC50
[11] = biological target: KRAS Q61H (Homo sapiens, UniProt P01116+P62937, Q61H); experiment: as above; type: biochemical; conditions: KRAS Q61H; read-out: KRAS Q61H FRET data IC50
Procedure, shortened: (§3)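 TR-FRET in 25 mM HEPES pH 7.3, 100 mM NaCl, 5 mM MgCl2, 0.1% BSA: 25 μM Cyclophilin A, 12.5 nM His6-Ras-GMPPNP, 50 nM GST-BRAF RBD with compound (10-point 3-fold series from 30 μM), 3 h at 25° C. Anti-His Eu/anti-GST APC added, 1.5 h more; IC50 from decreased FRET ratio versus DMSO.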

[12] = biological target: NRAS Q61K (Homo sapiens, UniProt P01111+P62937, Q61K); experiment: as above; type: biochemical; conditions: NRAS Q61K; read-out: NRAS Q61K FRET data IC50
Procedure, shortened: as §3

[13] = biological target: NRAS Q61R (Homo sapiens, UniProt P01111+P62937, Q61R); experiment: as above; type: biochemical; conditions: NRAS Q61R; read-out: NRAS Q61R FRET data IC50
Procedure, shortened: as §3

[14] = biological target: NRAS WT (Homo sapiens, UniProt P01111+P62937); experiment: as above; type: biochemical; conditions: NRAS WT; read-out: NRAS WT FRET data IC50
Procedure, shortened: as §3

Sequence of NRAS G12C (P01111 whole entry G12C): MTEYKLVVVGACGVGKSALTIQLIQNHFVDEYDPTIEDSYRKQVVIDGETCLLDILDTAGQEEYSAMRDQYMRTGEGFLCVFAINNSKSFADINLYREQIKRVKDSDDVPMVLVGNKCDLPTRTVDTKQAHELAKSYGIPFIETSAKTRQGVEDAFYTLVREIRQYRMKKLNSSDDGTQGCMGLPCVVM
Sequence of NRAS G12C (P62937 whole entry): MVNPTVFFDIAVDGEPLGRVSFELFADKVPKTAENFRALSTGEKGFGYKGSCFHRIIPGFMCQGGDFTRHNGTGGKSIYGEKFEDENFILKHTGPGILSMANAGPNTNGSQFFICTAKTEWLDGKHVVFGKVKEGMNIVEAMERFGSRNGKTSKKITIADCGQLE
Sequence of KRAS G13C (P01116 1-169 isoform P01116-2 G13C): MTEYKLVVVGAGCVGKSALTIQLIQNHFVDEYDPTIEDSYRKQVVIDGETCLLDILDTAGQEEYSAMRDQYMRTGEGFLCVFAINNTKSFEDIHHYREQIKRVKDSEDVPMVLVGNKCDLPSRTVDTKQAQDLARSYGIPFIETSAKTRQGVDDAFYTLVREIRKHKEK
Sequence of KRAS G13C (P62937 whole entry): as the sequence (P62937 whole entry) above
Sequence of NRAS Q61R (P01111 whole entry Q61R): as the sequence (P01111 whole entry G12C) above, with C12G, Q61R counted along it
Sequence of NRAS Q61R (P62937 whole entry): as the sequence (P62937 whole entry) above
Sequence of NRAS WT (P01111 whole entry): as the sequence (P01111 whole entry G12C) above, with C12G counted along it
Sequence of NRAS WT (P62937 whole entry): as the sequence (P62937 whole entry) above
Sequence of NRAS Q61K (P01111 whole entry Q61K): as the sequence (P01111 whole entry G12C) above, with C12G, Q61K counted along it
Sequence of NRAS Q61K (P62937 whole entry): as the sequence (P62937 whole entry) above
Sequence of KRAS G13D (P01116 1-169 isoform P01116-2 G13D limits assumed): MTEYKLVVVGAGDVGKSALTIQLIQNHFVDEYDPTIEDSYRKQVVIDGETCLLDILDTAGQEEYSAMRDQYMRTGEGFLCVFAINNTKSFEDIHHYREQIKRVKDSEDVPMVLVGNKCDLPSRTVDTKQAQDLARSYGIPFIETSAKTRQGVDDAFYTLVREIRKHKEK
Sequence of KRAS G13D (P62937 whole entry): as the sequence (P62937 whole entry) above
Sequence of KRAS G12C (P01116 1-169 isoform P01116-2 G12C): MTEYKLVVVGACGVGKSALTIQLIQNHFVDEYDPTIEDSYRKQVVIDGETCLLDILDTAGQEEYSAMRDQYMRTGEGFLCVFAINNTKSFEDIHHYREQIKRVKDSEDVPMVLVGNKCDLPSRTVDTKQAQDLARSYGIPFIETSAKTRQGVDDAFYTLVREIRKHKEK
Sequence of KRAS G12C (P62937 whole entry): as the sequence (P62937 whole entry) above
Sequence of KRAS G12S (P01116 1-169 isoform P01116-2 G12S limits assumed): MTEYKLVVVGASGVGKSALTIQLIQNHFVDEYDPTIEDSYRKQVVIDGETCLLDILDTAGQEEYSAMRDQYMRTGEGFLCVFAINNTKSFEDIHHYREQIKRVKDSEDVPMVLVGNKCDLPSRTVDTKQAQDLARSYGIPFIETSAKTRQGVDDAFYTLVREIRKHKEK
Sequence of KRAS G12S (P62937 whole entry): as the sequence (P62937 whole entry) above
Sequence of KRAS G12V (P01116 1-169 isoform P01116-2 G12V limits assumed): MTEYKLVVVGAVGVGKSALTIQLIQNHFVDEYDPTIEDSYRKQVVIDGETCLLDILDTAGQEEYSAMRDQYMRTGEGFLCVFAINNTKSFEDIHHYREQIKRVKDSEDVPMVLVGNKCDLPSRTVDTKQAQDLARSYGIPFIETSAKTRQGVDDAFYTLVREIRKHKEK
Sequence of KRAS G12V (P62937 whole entry): as the sequence (P62937 whole entry) above
Sequence of KRAS Q61H (P01116 1-169 isoform P01116-2 Q61H limits assumed): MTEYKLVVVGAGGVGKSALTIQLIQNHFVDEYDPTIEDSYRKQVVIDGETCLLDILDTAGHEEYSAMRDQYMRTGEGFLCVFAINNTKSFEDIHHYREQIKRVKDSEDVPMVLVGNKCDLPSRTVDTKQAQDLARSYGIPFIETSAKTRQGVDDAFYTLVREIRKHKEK
Sequence of KRAS Q61H (P62937 whole entry): as the sequence (P62937 whole entry) above
Sequence of KRAS WT (P01116 1-169 isoform P01116-2 limits assumed): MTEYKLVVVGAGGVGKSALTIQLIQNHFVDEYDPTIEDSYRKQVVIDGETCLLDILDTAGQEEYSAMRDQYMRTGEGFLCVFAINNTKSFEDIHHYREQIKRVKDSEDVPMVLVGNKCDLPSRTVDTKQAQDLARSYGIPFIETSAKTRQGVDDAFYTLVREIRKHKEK
Sequence of KRAS WT (P62937 whole entry): as the sequence (P62937 whole entry) above
Sequence of KRAS G12D (P01116 1-169 isoform P01116-2 G12D limits assumed): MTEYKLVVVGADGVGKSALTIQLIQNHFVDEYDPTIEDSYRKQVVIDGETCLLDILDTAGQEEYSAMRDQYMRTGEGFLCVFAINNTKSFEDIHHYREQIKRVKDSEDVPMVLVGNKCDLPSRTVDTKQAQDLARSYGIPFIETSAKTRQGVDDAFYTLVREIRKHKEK
Sequence of KRAS G12D (P62937 whole entry): as the sequence (P62937 whole entry) above

With CCn1c(-c2cccnc2[C@H](C)OC)c2c3cc(ccc31)-c1csc(n1)C[C@H](NC(=O)[C@H](C(C)C)N(C)C(=O)N(C)C1CCC1)C(=O)N1CCC[C@H](N1)C(=O)OCC(C)(C)C2 (atropisomer, axis not shown) [Example A349] the IC50 [1] was 100 to 1000 nM, the IC50 [2] was 10 to 100 nM and the IC50 [3] was 10 to 100 nM. The IC50 [4] was 100 to 1000 nM, the IC50 [5] was 10 to 100 nM and the IC50 [6] was 10 to 100 nM. The IC50 [7] was 10 to 100 nM, the IC50 [8] was 10 to 100 nM and the IC50 [9] was 10 to 100 nM. For the same molecule, the IC50 [10] was 10 to 100 nM, the IC50 [11] was 10 to 100 nM and the IC50 [12] was 10 to 100 nM. The IC50 [13] was 10 to 100 nM and the IC50 [14] was 10 to 100 nM.

CCn1c(-c2cccnc2[C@H](C)OC)c2c3cc(ccc31)-c1csc(n1)C[C@H](NC(=O)[C@H](C(C)C)N(C)C(=O)N1CC([C@@H](C)N(C)C)C1)C(=O)N1CCC[C@H](N1)C(=O)OCC(C)(C)C2 (atropisomer, axis not shown) [Example A458] was tested, and the IC50 [1] was 10 to 100 nM, the IC50 [2] was 10 to 100 nM and the IC50 [3] was 10 to 100 nM. It also gave an IC50 [4] of 100 to 1000 nM, an IC50 [5] of 100 to 1000 nM and an IC50 [6] of 100 to 1000 nM. It also gave an IC50 [7] of 100 to 1000 nM, an IC50 [8] of 100 to 1000 nM and an IC50 [9] of 100 to 1000 nM. For the same molecule, the IC50 [10] was 10 to 100 nM, the IC50 [11] was 100 to 1000 nM and the IC50 [12] was 10 to 100 nM. It also gave an IC50 [13] of 100 to 1000 nM and an IC50 [14] of 100 to 1000 nM.

In the case of CCn1c(-c2cccnc2[C@H](C)OC)c2c3cc(ccc31)-c1csc(n1)C[C@H](NC(=O)[C@H](C(C)C)N(C)C(=O)N1CC[C@H](N(C)C)C1)C(=O)N1CCC[C@H](N1)C(=O)OCC(C)(C)C2 [Example A603], the IC50 [1] is reported as 10 to 100 nM, the IC50 [2] is reported as 10 to 100 nM and the IC50 [3] is reported as 100 to 1000 nM. For the same molecule, the IC50 [4] was 100 to 1000 nM, the IC50 [5] was 100 to 1000 nM and the IC50 [6] was 100 to 1000 nM. For the same molecule, the IC50 [7] was 100 to 1000 nM, the IC50 [8] was 100 to 1000 nM and the IC50 [9] was 100 to 1000 nM. For the same molecule, the IC50 [10] was 100 to 1000 nM, the IC50 [11] was 100 to 1000 nM and the IC50 [12] was 100 to 1000 nM. For the same molecule, the IC50 [13] was 100 to 1000 nM and the IC50 [14] was 100 to 1000 nM.

CCn1c(-c2cccnc2[C@H](C)OC)c2c3cc(cnc31)-c1csc(n1)C[C@H](NC(=O)[C@H](C(C)C)N(C)C(=O)N1CC(OC)C1)C(=O)N1CCC[C@H](N1)C(=O)OCC(C)(C)C2 [Example A612] showed an IC50 [1] of 100 to 1000 nM, an IC50 [2] of 100 to 1000 nM and an IC50 [3] of 100 to 1000 nM. For the same molecule, the IC50 [4] was 1000 to 10000 nM, the IC50 [5] was 1000 to 10000 nM and the IC50 [6] was 1000 to 10000 nM. It also gave an IC50 [7] of 1000 to 10000 nM, an IC50 [8] of 1000 to 10000 nM and an IC50 [9] of 1000 to 10000 nM. It also gave an IC50 [10] of 100 to 1000 nM, an IC50 [11] of 100 to 1000 nM and an IC50 [12] of 100 to 1000 nM. For the same molecule, the IC50 [13] was 1000 to 10000 nM and the IC50 [14] was 100 to 1000 nM.

In the case of CCn1c(-c2cccnc2[C@H](C)OC)c2c3cc(ccc31)-c1cc(O)cc(c1)C[C@H](NC(=O)[C@H](C(C)C)N(C)C(=O)C1CCC(C3CCCO3)O1)C(=O)N1CCC[C@H](N1)C(=O)OCC(C)(C)C2 (stereo partly shown) [Example A396], the IC50 [1] is reported as 100 to 1000 nM, the IC50 [2] is reported as 100 to 1000 nM and the IC50 [3] is reported as 10 to 100 nM. For the same molecule, the IC50 [4] was 100 to 1000 nM, the IC50 [5] was 10 to 100 nM and the IC50 [6] was 10 to 100 nM. For the same molecule, the IC50 [7] was 10 to 100 nM, the IC50 [8] was 10 to 100 nM and the IC50 [9] was 10 to 100 nM. It also gave an IC50 [10] of 10 to 100 nM, an IC50 [11] of 10 to 100 nM and an IC50 [12] of 10 to 100 nM. For the same molecule, the IC50 [13] was 10 to 100 nM and the IC50 [14] was 10 to 100 nM.
